From the NIST ThermoML archive (doi:10.1021/je900048r)
Numbers after ± are expanded uncertainties.

Assay: xn = mol fraction of the nth substance listed
Settings: Liquid, Other PVT measurement

CCCCn1cc[n+](C)c1.F[B-](F)(F)F [1-butyl-3-methylimidazolium tetrafluoroborate] + CCO
mass density [kg/m3]
Settings	x1 = 0.2	x1 = 0.3	x1 = 0.3999	x1 = 0.4998	x1 = 0.6	x1 = 0.6996	x1 = 0.8001	x1 = 0.8998	x1 = 1
353.15 K, 1800 kPa	936 ± 9	994 ± 10	1043 ± 10	1071 ± 11	1095 ± 11	1116 ± 11	1133 ± 11	1148 ± 12	1161 ± 12
353.15 K, 2000 kPa	937 ± 9	994 ± 10	1043 ± 10	1072 ± 11	1096 ± 11	1117 ± 11	1133 ± 11	1148 ± 12	1161 ± 12
393.15 K, 600 kPa	904 ± 9	964 ± 10	1014 ± 10	1042 ± 10	1067 ± 11	1090 ± 11	1106 ± 11	1122 ± 11	1135 ± 11
393.15 K, 1000 kPa	904 ± 9	965 ± 10	1014 ± 10	1043 ± 10	1068 ± 11	1090 ± 11	1106 ± 11	1122 ± 11	1135 ± 11
393.15 K, 1400 kPa	905 ± 9	965 ± 10	1015 ± 10	1043 ± 10	1068 ± 11	1090 ± 11	1107 ± 11	1122 ± 11	1135 ± 11
393.15 K, 1800 kPa	905 ± 9	965 ± 10	1015 ± 10	1044 ± 10	1069 ± 11	1091 ± 11	1107 ± 11	1123 ± 11	1136 ± 11
393.15 K, 2000 kPa	905 ± 9	966 ± 10	1015 ± 10	1044 ± 10	1069 ± 11	1091 ± 11	1108 ± 11	1123 ± 11	1136 ± 11
433.15 K, 1400 kPa	871 ± 9	935 ± 9	987 ± 10	1016 ± 10	1041 ± 10	1065 ± 11	1081 ± 11	1097 ± 11	1112 ± 11
433.15 K, 1800 kPa	872 ± 9	935 ± 9	987 ± 10	1017 ± 10	1042 ± 10	1066 ± 11	1082 ± 11	1097 ± 11	1113 ± 11
433.15 K, 2000 kPa	872 ± 9	935 ± 9	987 ± 10	1017 ± 10	1042 ± 10	1066 ± 11	1082 ± 11	1098 ± 11	1113 ± 11
